Measurements published in patent publication US6521669B1, “Hydroxystilbene compounds for reducing/inhibiting protein glycation” (Societe L'Oreal S.A., priority 1999, dated 2003).

What was measured:
[1] = test system: human hair proteins (keratins); assay: Glycation of isolated human hair proteins (keratins) with ribose, glycation index (Experiment 2); type: biochemical; conditions: 50 mM ribose, 50° C., 14 days
Description: The glycation reaction was modelled in vitro in a biochemical model using human hair proteins (keratins) as a support for glycation with ribose. The test system consisted of isolated hair, incubated in a phosphate buffer (0.2M, pH=7.4) containing 50 mM of ribose (origin: Sigma). […] The assembly was incubated at 50° C. in the absence of light and air for 14 days. Control samples, incubated in the presence and absence of ribose, were tested in parallel. After incubation for 14 days, the incubation media were removed and the hair was washed with a solution containing 10 μM of guanidium chloride and then in water of MilliQ grade in order to remove all trace of free ribose. The hair was then placed in a solution containing 50% (v/v) of ethanol and 50 mM of DTT for 15 minutes at 37° C. After washing, the samples were placed in a solution containing 10 mM of 5,5′-dithiobis-2-nitrobenzoic acid. The absorbance relating to the free […] residues was measured at 415 nm. The samples were then washed in a 50% (v/v) ethanol solution and then heated for 30 minutes at 100° C. in a 2M hydrazine monohydrate solution (pH 9.4). After addition of a 1 mg/ml solution of phenylhydrazine in a 40% (v/v) acetic acid solution, the samples were incubated for [lacuna] 60° C. and the absorbance relating to the glycated proteins was measured at 390 nm. For each sample, the glycation index was evaluated by the ratio between the absorbance at 390 nm and the absorbance at 415 nm. [formula] The groups of data (control group and treated groups) were processed by means of a variance analysis (ANOVA), followed by a Dunett test.

bovine serum albumin = bovine serum albumin (Bos taurus, UniProt P02769); assay: Glycation of bovine serum albumin with D-ribose, AGE fluorescence (Experiment 1); type: biochemical
Sequence of bovine serum albumin (P02769 25-607): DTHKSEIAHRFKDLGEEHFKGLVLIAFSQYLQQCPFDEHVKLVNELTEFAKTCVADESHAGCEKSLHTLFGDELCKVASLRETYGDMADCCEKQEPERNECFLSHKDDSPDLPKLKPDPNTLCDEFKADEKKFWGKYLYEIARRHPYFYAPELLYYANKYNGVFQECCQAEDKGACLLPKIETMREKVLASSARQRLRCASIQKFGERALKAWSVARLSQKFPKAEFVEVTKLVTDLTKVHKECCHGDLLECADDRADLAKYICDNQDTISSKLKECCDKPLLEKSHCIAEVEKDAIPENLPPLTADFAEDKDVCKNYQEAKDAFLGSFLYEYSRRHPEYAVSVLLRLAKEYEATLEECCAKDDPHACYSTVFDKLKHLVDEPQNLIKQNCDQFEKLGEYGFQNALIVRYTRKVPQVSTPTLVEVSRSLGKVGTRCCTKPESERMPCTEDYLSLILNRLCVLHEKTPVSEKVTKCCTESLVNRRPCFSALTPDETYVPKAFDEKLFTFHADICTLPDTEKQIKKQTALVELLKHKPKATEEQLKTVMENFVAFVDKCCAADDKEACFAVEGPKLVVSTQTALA
Description: The glycation was evaluated by measuring the fluorescence of the AGEs at λem.=440 nm emitted by each sample after excitation at λex.=370 nm. The inhibition of glycation was visualized by the decrease in fluorescence compared with the sample treated with sugar alone.

- inhibition at 1 µM (bovine serum albumin): 17%
- inhibition at 10 µM (bovine serum albumin): 29.8%
Compound: Oc1ccc(C=Cc2cc(O)cc(O)c2)cc1 [resveratrol, 3,5,4′-trihydroxystilbene]
- % Inhibition ([1]; resveratrol 10^−4 M): 80%
- % Inhibition ([1]; resveratrol 10^−5 M): 51%
- % Inhibition ([1]; resveratrol 10^−6 M): 59%
- % Inhibition ([1]; resveratrol 10^−7 M): 45%
